Test results published in paper PMC5554537 (Frontiers in Pharmacology, 2017).
Like-named read-outs stand apart in the source and are kept apart here.

Legend:
[1] = Stability in mouse liver homogenates (QC samples); format: physicochemical
From the text: using octa-deuterated internal standards of SN30000, M13 and M14 synthesised as previously reported (Wang et al., 2012). Intra- and inter-day precision (expressed as relative standard deviation (RSD) and accuracy (expressed as percentage of the nominal value) were deter mined by analy sis of replicates (n=6) of low and high quality control (QC) samples on three different days. The lower limit of quantitation (LLOQ) was defined as the lowest concentration providing RSD and accuracy < 20%. Recovery from plasma and liver ho mogenates was tested at the three QC levels. The recoveries were evaluated by comparing extracted samples with blank extracted solutions spiked with analytes of the same amount.
Matrix effects, defined as the change in response due to the presence of other substances in the samples, were evaluated by comparing the analytes diluted into the blank plasma or liver extracted solution with that of the same stock solutions diluted in water. Three different concentration levels (low, medium and high QC) were evaluated by analysing three samples at each level. Accuracy , precision, recovery and matrix effects were all acceptable over the concentration ranges evaluated for plas ma (Supplementary Table 1) and for liver homogenates (Supplementary Table 2).
Stability of the analytes in mouse plasma (Supplementary Table 3) or liver homogenate (Supplementary Table 4) was confirmed during holding of QC samples on ice for up to 2 h under nor mal laboratory lighting, although there was a trend towards loss of SN30000 in plasma samples held in clear microcentrifuge tubes which may reflect the known photosensitivity of the compound (Gu et al., 2014). This loss was reduced by use of red microcentrifuge tubes, and eliminated by black tubes. Stability in both matrices was also confir med for one month storage at -80°C and for three freeze-thaw cycles, while MeOH-deproteinised samples w ere stable for 12 h at 4°C in the autosampler (Supplementary Tables

[2] = i.p. SN30000 186 mg/kg
Protocol: (§1) M18 was quantified by absorbance detection with reference to an external standard calibration curve.
(§2) Concentration-time data were analyzed by non-compartmental analysis using Phoenix WinNonlin (ver 6.4, Build 6.4.0768 Pharsight, United States); all AUC values were extrapolated to infinity using the linear trapezoidal rule.
(§3) SN30000, M14 and M13 were quantified by LC-MS/MS using stable isotope internal standards, while M18 was quantified by absorbance detection using external standard calibration curves.

in vivo [3] = settings: NIH-III, mouse, ip
Protocol: SN30000, M14 and M18 dosing solutions were prepared fresh in normal saline, filtered through 0.45 μm Acrodisc filters (Pall Life Sciences, Port Washington, NY, United States), protected from light in amber vials, and used within 3 h. Doses are expressed as mg of free base equivalent for SN30000 and M14, and free acid in the case of M18. […] For evaluation of acute toxicity, mice were observed continuously for 3 h after dosing, and their activity rated on a lethargy score from 0 representing no change in activity to 5 representing animals that were moribund and required culling. For MTD studies, the animals were checked daily for clinical signs of toxicity and body weight change for 2 weeks. In some studies rectal temperature changes after dosing were measured using a BAT-12 digital microprobe thermometer (Physitemp Instruments, Clifton, NJ, United States) at the times specified in the figures. Blood samples were collected from mice at various times by cardiac puncture, seconds after cervical dislocation, into ice-cold tubes containing K2EDTA. These were placed on ice immediately after collection and centrifuged (3,000 g, 3 min) within 10 min to harvest plasma. Plasma and tissues were rapidly frozen in liquid nitrogen before storage at -80°C for subsequent bioanalysis.
Concentration-time data were analyzed by non-compartmental analysis using Phoenix WinNonlin (ver 6.4, Build 6.4.0768 Pharsight, United States); all AUC values were extrapolated to infinity using the linear trapezoidal rule. A compartmental model for plasma PK after dosing with SN30000 or M14 was fitted using Phoenix NLME v1.3 with random effects on the metabolite volumes of distribution, and temperature effects based on the observed body temperature at the last measurement time. Temperature effects were added or removed until there was no significant change in the log likelihood. Model fits were further assessed by visual inspection of the residuals and predicted PK.

in vivo [4] = settings: NIH-III, mouse, ip, 186 mg/kg
Protocol: as §1, §2, §3

HCT116 cells = test: Antiproliferative potency, 4 h exposure, sulforhodamine B; format: cell-based, human; settings: for IC50: Homo sapiens, HCT-116, 4 h, HCT116, 4 h exposure, read-out: IC50
Protocol: Antiproliferative potency of SN30000 and its major metabolites following 4 h exposure of HCT116 cells under aerobic or anoxic conditions. […]
a HCT116 cells, originally from ATCC, were authenticated by short tandem repeat profiling and confir med mycoplasma-free by PCR/ELISA assay . Cells were passaged in Alpha MEM with 5% foetal bovine serum without antibiotics. In vitro cytotoxicity of SN30000 and metabolites was measured as the inhibition of cell proliferation as described previously (Gu et al., 2009). Briefly, cells were exposed to compounds for 4 h under aerobic (20% O2) or anoxic (Bactron anaerobic chamber) conditions and then grown in an aerobic 5% CO 2 incubator for 5 d before staining with sulforhodamine B. IC50 values were deter mined by interpolation (nonlinear regression to the standard Hill equation) as the drug concentration reducing staining to 50% of controls on the same plate. b Values are mean ± SEM for the numb er of independent experiments shown in parentheses.

NIH-III mice = test: Core body (rectal) temperature and acute clinical signs after dosing; format: in vivo
Protocol: Supplementary Figure 3. Initial rates of core temperature decrease in (untreated) NIH-III mice post- mortem: co mparison with initial temperature change ante- mortem following treatment with benzotriazine oxides at their MTD. Temperature was measured in rectu m and liver over 15 min. Initial rates of temperature loss (°C/min) were: post- mortem (rectum):
(rectum) 0.33. The rectal temperature loss following dosing with M14 (135 mg/kg) was 0.6 °C/min (not shown for clarity). The drug-induced changes are redrawn from Fig. 4.

[5] = liver homogenate deproteinised in 3 vol MeOH, 12 h autosampler at 4°C, nominal SN30000 0.5, M14 0.25, M13 0.1 µM
[6] = liver homogenate deproteinised in 3 vol MeOH, 12 h autosampler at 4°C, nominal SN30000 5, M14 2.5, M13 1 µM
[7] = liver homogenate deproteinised in 3 vol MeOH, 12 h autosampler at 4°C, nominal SN30000 50, M14 25, M13 10 µM
[8] = liver homogenate, 1 month at -80°C, nominal SN30000 5, M14 2.5, M13 1 µM
[9] = liver homogenate, 1 month at -80°C, nominal SN30000 50, M14 25, M13 10 µM
[10] = liver homogenate, 1h on ice, clear tubes, nominal SN30000 0.5, M14 0.25, M13 0.1 µM
[11] = liver homogenate, 1h on ice, clear tubes, nominal SN30000 5, M14 2.5, M13 1 µM
[12] = liver homogenate, 1h on ice, clear tubes, nominal SN30000 50, M14 25, M13 10 µM
[13] = liver homogenate, 2h on ice, nominal SN30000 0.5, M14 0.25, M13 0.1 µM
[14] = liver homogenate, 2h on ice, nominal SN30000 5, M14 2.5, M13 1 µM
[15] = liver homogenate, 2h on ice, nominal SN30000 50, M14 25, M13 10 µM
[16] = liver homogenate, three freeze-thaw cycles, nominal SN30000 0.5, M14 0.25, M13 0.1 µM
[17] = liver homogenate, three freeze-thaw cycles, nominal SN30000 5, M14 2.5, M13 1 µM
[18] = liver homogenate, three freeze-thaw cycles, nominal SN30000 50, M14 25, M13 10 µM
[19] = HT29 tumour, tumour-bearing mice
[20] = liver, HT29 tumour-bearing mice
[21] = plasma, HT29 tumour-bearing mice
[22] = plasma, non-tumour-bearing mice

c1c2c(cc3nc(CCCN4CCOCC4)nnc13)CCC2 [M13]
Bias [1, 5]: 7.07%
Measured conc [1, 5]: 0.11 µM
Bias [1, 6]: 10.75%
Measured conc [1, 6]: 1.11 µM
Bias [1, 7]: 6.40%
Measured conc [1, 7]: 10.64 µM
Measured conc ([1]; liver homogenate, 1 month at -80°C, nominal SN30000 0.5, M14 0.25, M13 0.1 µM): 0.11 µM
Bias [1, 8]: 4.04%
Measured conc [1, 8]: 1.03 µM
Bias [1, 9]: 5.05%
Measured conc [1, 9]: 9.12 µM
Bias [1, 10]: 11.64%
Measured conc [1, 10]: 0.11 µM
Bias [1, 11]: 10.33%
Measured conc [1, 11]: 1.10 µM
Bias [1, 12]: 7.77%
Measured conc [1, 12]: 10.78 µM
Bias [1, 13]: 2.48%
Measured conc [1, 13]: 0.10 µM
Bias [1, 14]: 3.25%
Measured conc [1, 14]: 1.03 µM
Bias [1, 15]: 1.11%
Measured conc [1, 15]: 10.11 µM
Bias [1, 16]: -7.15%
Measured conc [1, 16]: 0.093 µM
Bias [1, 17]: -4.26%
Measured conc [1, 17]: 0.96 µM
Bias [1, 18]: 5.64%
Measured conc [1, 18]: 10.56 µM
Concentrations in brain compared with plasma [2]: higher in brain than plasma
AUC (extrapolated to infinity) [2, 19]: 57.7 µmol·h/kg
Cmax [2, 19]: 15.5 ± 2.2 µmol/kg
AUC (extrapolated to infinity) ([2]; brain, non-tumour-bearing mice): 46.7 µmol·h/kg
Cmax ([2]; brain, non-tumour-bearing mice): 52.8 ± 4.1 µmol/kg
AUC (extrapolated to infinity) [2, 20]: 158 µmol·h/kg
Cmax [2, 20]: 155.4 ± 8.4 µmol/kg
AUC (extrapolated to infinity) ([2]; liver, non-tumour-bearing mice): 158 µmol·h/kg
Cmax ([2]; liver, non-tumour-bearing mice): 178.7 ± 8.1 µmol/kg
AUC (extrapolated to infinity) [2, 21]: 14. 9 µmol. hr/kg
AUC (extrapolated to infinity) [2, 22]: 13.0 µmol·h/kg
AUC (in vivo [3]; plasma, 1.86 mg/kg): 0.0029 µM·h
Cmax (in vivo [3]; plasma, 1.86 mg/kg): 0.008 µM
half-life (in vivo [3]; plasma, 1.86 mg/kg): 19.8 min
AUC (in vivo [3]; plasma, 18.6 mg/kg): 0.079 µM·h
Cmax (in vivo [3]; plasma, 18.6 mg/kg): 0.202 µM
half-life (in vivo [3]; plasma, 18.6 mg/kg): 39.1 min
AUC (in vivo [3]; plasma, 78.3 mg/kg): 2.64 µM·h
Cmax (in vivo [3]; plasma, 78.3 mg/kg): 3.85 µM
half-life (in vivo [3]; plasma, 78.3 mg/kg): 31.8 min
AUC (in vivo [3]; plasma, 92.8 mg/kg): 5.43 µM·h
Cmax (in vivo [3]; plasma, 92.8 mg/kg): 6.63 µM
half-life (in vivo [3]; plasma, 92.8 mg/kg): 26.2 min
AUC (in vivo [3]; plasma, 186 mg/kg): 14.3 µM·h
half-life (in vivo [3]; plasma, 186 mg/kg): 53.3 min
half-life (in vivo [4]; HT29 tumour, Terminal T1/2, i.p. SN30000 186 mg/kg, tumour-bearing mice): 126 min
half-life (in vivo [4]; all tissues except tumors, Elimination half-life, i.p. SN30000 186 mg/kg): ~30 min
half-life (in vivo [4]; brain, Terminal T1/2, i.p. SN30000 186 mg/kg, non-tumour-bearing mice): 34.9 min
Tmax (in vivo [4]): ≤ 5 min
half-life (in vivo [4]; liver, Terminal T1/2, i.p. SN30000 186 mg/kg, HT29 tumour-bearing mice): 52.4 min
half-life (in vivo [4]; liver, Terminal T1/2, i.p. SN30000 186 mg/kg, non-tumour-bearing mice): 42.1 min
half-life (in vivo [4]; plasma, Terminal T1/2, i.p. SN30000 186 mg/kg, HT29 tumour-bearing mice): 53.2 min
half-life (in vivo [4]; plasma, Terminal T1/2, i.p. SN30000 186 mg/kg, non-tumour-bearing mice): 42.4 min

O=C(O)CCc1nc2cc3c(cc2[n+]([O-])n1)CCC3 [M18]
IC50 (HCT116 cells; aerobic (20% O2)): > 1.67 mM
IC50 (HCT116 cells; anoxic): > 1.67 mM
Potency relative to SN30000 (fold less potent) (HCT116 cells; anoxic HCT116 cultures): at least 1000 fold
Body weight loss (NIH-III mice; 36 mg/kg): no body weight loss was observed
Acute clinical signs and hypothermic response (NIH-III mice; 36 mg/kg i.p. or i.v.): no acute clinical signs or hypothermic response were observed
Detection in brain [2]: not detected in brain
Plasma concentration reached ([2]; negligible elimination up to 3 h): > 100 µM
AUC 0-3hr ([2]; HT29 tumour): 34.8 µmol·h/kg
Cmax [2, 19]: 17.6 µmol/kg
AUC 0-3hr [2, 20]: 92 µmol·h/kg
Cmax [2, 20]: 46.1 ± 5.2 µmol/kg
AUC 0-3hr ([2]; liver, non-tumour-bearing mice): 107 µmol·h/kg
Cmax ([2]; liver, non-tumour-bearing mice): 53.5 ± 4.0 µmol/kg
AUC 0-3hr [2, 21]: 322 µmol·h/kg
AUC 0-3hr [2, 22]: 349 µmol·h/kg
AUC (in vivo [3]; in vivo, 1.86 mg/kg): 1.06 µM·h
Cmax (in vivo [3]; in vivo, 1.86 mg/kg): 0.65 µM
half-life (in vivo [3]; in vivo, 1.86 mg/kg): 102 min
AUC (in vivo [3]; in vivo, 18.6 mg/kg): 10.8 µM·h
Cmax (in vivo [3]; in vivo, 18.6 mg/kg): 5.44 µM
half-life (in vivo [3]; in vivo, 18.6 mg/kg): 220 min
AUC (in vivo [3]; in vivo, 78.3 mg/kg): 51.5 µM·h
Cmax (in vivo [3]; in vivo, 78.3 mg/kg): 23.4 µM
half-life (in vivo [3]; in vivo, 78.3 mg/kg): 35.5 min
AUC (in vivo [3]; in vivo, 92.8 mg/kg): 116 µM·h
Cmax (in vivo [3]; in vivo, 92.8 mg/kg): 52.8 µM
half-life (in vivo [3]; in vivo, 92.8 mg/kg): 145 min
AUC (in vivo [3]; in vivo, 186 mg/kg): 204 µM·h
Cmax (in vivo [3]; in vivo, 186 mg/kg): 79.5 µM
half-life (in vivo [3]; in vivo, 186 mg/kg): 1210 min
Cmax (in vivo [4]; in vivo, i.p. SN30000 186 mg/kg, plasma, HT29 tumour-bearing mice): 139 ± 6 µM
Cmax (in vivo [4]; in vivo, i.p. SN30000 186 mg/kg, plasma, non-tumour-bearing mice): 119 ± 3 µM
half-life (in vivo [4]; in vivo, Terminal T1/2, i.p. SN30000 186 mg/kg, liver, HT29 tumour-bearing mice): 392 min
half-life (in vivo [4]; in vivo, Terminal T1/2, i.p. SN30000 186 mg/kg, liver, non-tumour-bearing mice): 183 min
half-life (in vivo [4]; in vivo, Terminal T1/2, i.p. SN30000 186 mg/kg, plasma, HT29 tumour-bearing mice): 960 min
half-life (in vivo [4]; in vivo, Terminal T1/2, i.p. SN30000 186 mg/kg, plasma, non-tumour-bearing mice): 173 min
